The results in this text go back to ChEMBL document CHEMBL1208717, “Antimalarial 3-arylamino-6-benzylamino-1,2,4,5-tetrazines” (Bioorg Med Chem Lett, 2010).

Usually EC50 stands for the concentration that produces a half-maximal response. The term IC50 denotes the concentration needed to halve the response being measured. Low values mean greater potency, high ones weaker potency.

“And” between values parts separate entries of the source, which are not always exact repeats. Equal values may be shown once.

Series [1] concerns Plasmodium falciparum. The series is described as follows: Antimalarial activity against erythrocytic stage of Plasmodium falciparum 3D7. The format is functional, organism-based.
A further series has as its system Leishmania infantum. The experiment in a line: Antileishmanial activity against amastigote stage of Leishmania infantum. The format is functional, organism-based.
For another series, the system named is Trypanosoma cruzi. The experiment in a line: Antitrypanosomal activity against amastigote stage of Trypanosoma cruzi Tulahuen C2C4. The following applies: Tulahaen C2C4. The format is functional, organism-based.
Series [2] concerns Trypanosoma brucei rhodesiense. The experiment in a line: Antitrypanosomal activity against bloodstream form of Trypanosoma brucei rhodesiense STIB 900. The format is functional, organism-based.
Another series has as its system L6. The experiment in a line: Cytotoxicity against rat L6 cells. The format is cell-based.
For series [3], the system named is Plasmodium falciparum. The experiment in a line: Antimalarial activity against erythrocytic stage of chloroquine-resistant Plasmodium falciparum Dd2. The format is functional, organism-based.
Series [4] can be described thus: Cytotoxicity against human HEK cells at 29 uM. The format is cell-based. The settings on record: hek293, 29 µM.
In series [5] the test system is Plasmodium falciparum. The series is described as follows: Antimalarial activity against erythrocytic stage of Plasmodium falciparum 3D7 at 115 uM. The format is functional, organism-based.
Series [6] has as its system Plasmodium falciparum. The experiment in a line: Antimalarial activity against erythrocytic stage of chloroquine-resistant Plasmodium falciparum Dd2 at 115 uM. The format is functional.
Series [7] can be described thus: Cytotoxicity against human HEK cells at 115 uM. The settings on record: hek293, 115 µM. The format is cell-based.
The subject of series [8] is Plasmodium falciparum. The experiment in a line: Antimalarial activity against erythrocytic stage of Plasmodium falciparum 3D7 at 38 uM. The format is functional, organism-based.
Series [9] is described as follows: Cytotoxicity against human HEK cells at 38 uM. The format is cell-based. The settings on record: hek293, 38 µM.
A short description of series [10]: Cytotoxicity against human HEK cells. The format is cell-based. The settings on record: HEK293.
Setting [11] is: Plasmodium falciparum, Dd2, read-out: EC50.

Turning to `Clc1ccc(Nc2nnc(NCc3ccccc3)nn2)cc1`, the half-maximal effective concentration (EC50) was 440 nM and 1100 nM in the series on Plasmodium falciparum [1]; 16 µM in the series on Leishmania infantum; 15 µM with Trypanosoma cruzi; more than 32 µM in [2]; 1.1 µM in the series on Plasmodium falciparum [3] (setting [11]). The same compound gave an IC50 in the series on L6 of more than 32 µM. In [4], the Activity came to 58%.

Take `Clc1ccc(Nc2nnc(NCCc3ccccc3)nn2)cc1`: the Activity was 85% in the series on Plasmodium falciparum [5], 88% in the series on Plasmodium falciparum [6] and “Non-toxic” in [7].

As for `CC(Nc1nnc(Nc2ccc(Cl)cc2)nn1)c1ccccc1` (configuration not stated), in the series on Plasmodium falciparum [8], the EC50 entry is “Not Active”. Also, in [9], the Activity result is “Non-toxic”.

`CNc1nnc(NCc2ccccc2)nn1`: the EC50 entry in the series on Plasmodium falciparum [5] is listed as “Not Active”. Further, the Activity result in series [7] is “Non-toxic”.

Regarding `CCCCNc1nnc(NCc2ccccc2)nn1`, the EC50 entry with Plasmodium falciparum [5] was “Not Active”. Besides, the Activity result in series [7] is “Non-toxic”.

Consider `c1ccc(CNc2nnc(Nc3ccccc3)nn2)cc1`, for which the half-maximal effective concentration (EC50) result in the series with Plasmodium falciparum [5] was “Not Active”. Further, the Activity entry in [7] is recorded as “Non-toxic”.

For the compound `CN(c1ccc(Cl)cc1)c1nnc(NCc2ccccc2)nn1`, the EC50 with Plasmodium falciparum [1] (Plasmodium falciparum, 3D7) is 2400 nM; with Plasmodium falciparum [3] (setting [11]), 3.5 µM. Further, the IC50 in series [10] came out at 12 µM.

With `CN(C)CCN(c1ccc(Cl)cc1)c1nnc(NCc2ccccc2)nn1`, the EC50 in the series on Plasmodium falciparum [1] (Plasmodium falciparum, 3D7) came to 13000 nM; in the series on Plasmodium falciparum [3] (setting [11]), 20 µM. Moreover, in series [10], the midpoint of inhibition, the IC50, lay at 38 µM.

Regarding `CN(C)CCN(Cc1ccccc1)c1nnc(N(CCN(C)C)c2ccc(Cl)cc2)nn1`, the EC50 entry with Plasmodium falciparum [5] is listed as “Not Active”. In addition, the Activity result in series [7] is on record as “Non-toxic”.

Take `CN(C)CCOc1cccc(Nc2nnc(NCc3ccccc3)nn2)c1`: the EC50 in the series with Plasmodium falciparum [1] (Plasmodium falciparum, 3D7) is 15000 nM; with Plasmodium falciparum [3] (setting [11]), 13 µM. In addition, in series [9], the Activity is on record as 52%.

For `CN(C)CCOc1cccc(CNc2nnc(Nc3ccc(Cl)cc3)nn2)c1`, the EC50 in the series on Plasmodium falciparum [1] (Plasmodium falciparum, 3D7) was determined as 5000 nM; with Plasmodium falciparum [3], 6 µM. Besides, the 50% inhibitory concentration (IC50) in series [10] was 21 µM.

On to `COc1nncc(-c2cnnc(SC)n2)n1`, for which the half-maximal effective concentration (EC50) in the series on Plasmodium falciparum [1] (Plasmodium falciparum, 3D7) came to 180 nM; in the series on Leishmania infantum, 8.6 µM; in the series with Trypanosoma cruzi, 16 µM; in [2], 5.7 µM. Half-maximal inhibition in the series with L6 (IC50) was put at 33 µM.
